Laboratory results: ChEMBL document CHEMBL1201862, “PubChem BioAssay data set” (2004)
Activity calls are given as the source filed them.

Legend:
[1] = target: 5-hydroxytryptamine receptor 1E (Homo sapiens, UniProt P28566); assay: Counterscreen assay for S1P3 antagonists: Dose response cell-based high throughput screening assay to identify antagonists of the 5-Hydroxytryptamine Receptor Subtype 1E (5HT1E). [Related pubchem assays: 1429, 485 ]; format: functional
[2] = target: Sphingosine 1-phosphate receptor 3 (Homo sapiens, UniProt Q99500); assay: Dose response cell-based high throughput screening assay for antagonists of the Sphingosine 1-Phosphate Receptor 3 (S1P3). [Related pubchem assays: 1429, 485 ]; format: functional
Leucine aminopeptidase = Leucine aminopeptidase (Plasmodium falciparum 3D7, UniProt Q8IL11); assay: P. falciparum M17LAP inhibitors, primary screen, biochemical, fluorogenic H-Leu-NHMec substrate, 1536-well (AID 1619); format: functional
Aspartyl aminopeptidase = target: T1, Aspartyl aminopeptidase (Plasmodium falciparum 3D7, UniProt Q8I2J3); assay: Counterscreen for inhibitors of M1 and M17 aminopeptidases: QFRET-based biochemical high throughput dose response assay for inhibitors of the Plasmodium falciparum M18 Aspartyl Aminopeptidase (PFM18AAP). [Related PubChem assays: 1619 (Screening assay (M17LAP inhibitors).), 1445 (Screening assay (M1AAP inhibitors).)]
T1 sequence (Q8I2J3 whole entry): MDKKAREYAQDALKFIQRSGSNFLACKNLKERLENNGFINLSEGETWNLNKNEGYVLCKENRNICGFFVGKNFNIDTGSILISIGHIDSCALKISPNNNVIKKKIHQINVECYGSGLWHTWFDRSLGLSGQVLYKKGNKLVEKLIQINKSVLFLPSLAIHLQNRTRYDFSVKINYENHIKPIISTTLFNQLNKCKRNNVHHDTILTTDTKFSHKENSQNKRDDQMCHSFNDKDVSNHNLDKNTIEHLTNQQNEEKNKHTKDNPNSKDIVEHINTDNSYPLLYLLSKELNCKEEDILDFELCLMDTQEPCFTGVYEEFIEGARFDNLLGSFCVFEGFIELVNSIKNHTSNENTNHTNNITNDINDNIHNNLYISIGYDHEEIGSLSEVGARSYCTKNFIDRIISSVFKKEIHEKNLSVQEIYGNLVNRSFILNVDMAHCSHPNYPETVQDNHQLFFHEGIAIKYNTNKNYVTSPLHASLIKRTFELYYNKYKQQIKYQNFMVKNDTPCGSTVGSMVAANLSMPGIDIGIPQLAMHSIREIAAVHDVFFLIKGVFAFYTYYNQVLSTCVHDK

Procathepsin L = Procathepsin L (Homo sapiens, UniProt P07711); assay: cathepsin L inhibitors, dose response, counter-screen for M1/M17 aminopeptidase inhibitor project, biochemical, QFRET, 1536-well (AID 2214)
[3] = NIH-3T3 fibroblast cytotoxicity, dose response, cytotoxicity control, cell-based, fluorescence, Alamar Blue, secondary assay (AID 2327); format: functional;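 further: NIH-3T3 mouse fibroblasts cultured with fluconazole at 8 µg/mL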
[4] = luciferase reporter signal reduction – luminescence, H4-C neuroglioblastoma cells, dose response (AID 2458); format: functional, cell-based;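 further: H4 neuroglioblastoma cells stably carrying a luciferase reporter gene fusion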
cells = format: functional, cell-based
[5] = inhibitors of SNCA 5'UTR-driven reporter translation, confirmation, H4 neuroglioma cells, luminescence (AID 1988); format: functional, cell-based
[6] = C. albicans growth with fluconazole, confirmation, fluorescence, retest (AID 2467); format: functional, cell-based
[7] = target: Serine/threonine-protein phosphatase (Candida dubliniensis (strain CD36 / CBS 7987 / NCPF 3949 / NRRLY-17841) (Yeast), UniProt B9W6M3); assay: calcineurin pathway inhibitors in yeast reporter, dose response, S. cerevisiae, CDRE-lacZ, luminescence, secondary (AID 2388); format: functional, cell-based;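 further: yeast reporter cells carrying a calcineurin-responsive lacZ construct stimulated with calcium chloride; luminescent beta-galactosidase reporter signal in whole cells rather than isolated phosphatase activity; potency for inhibition where a drop in reporter signal means calcineurin blockade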
[8] = inhibitors of SNCA 5'UTR-driven translation, confirmation, luminescence, H4 neuroglioblastoma cells, dose confirmation (AID 2454); format: functional, cell-based;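 further: H4 neuroglioblastoma cells carrying an alpha-synuclein 5'UTR luciferase reporter; potency for inhibition of the luciferase signal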
[9] = target: Heat shock protein HSP 90-alpha (Homo sapiens, UniProt P07900); format: functional, organism-based
[10] = target: ATP-dependent molecular chaperone HSP82 (Candida albicans (strain WO-1) (Yeast), UniProt C4YTQ8); assay: loss of DOC-induced GRE-beta-galactosidase reporter signal, dose response, Hsp90 inhibitor project, S. cerevisiae, luminescence (AID 2400); format: functional, cell-based;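 further: beta-galactosidase luminescence from glucocorticoid response element reporter as proxy for Hsp90 function; inhibitor potency where signal loss means Hsp90 inhibition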
[11] = target: T2, Alkaline phosphatase, tissue-nonspecific isozyme (Homo sapiens, UniProt P05186)
T2 sequence (P05186 whole entry): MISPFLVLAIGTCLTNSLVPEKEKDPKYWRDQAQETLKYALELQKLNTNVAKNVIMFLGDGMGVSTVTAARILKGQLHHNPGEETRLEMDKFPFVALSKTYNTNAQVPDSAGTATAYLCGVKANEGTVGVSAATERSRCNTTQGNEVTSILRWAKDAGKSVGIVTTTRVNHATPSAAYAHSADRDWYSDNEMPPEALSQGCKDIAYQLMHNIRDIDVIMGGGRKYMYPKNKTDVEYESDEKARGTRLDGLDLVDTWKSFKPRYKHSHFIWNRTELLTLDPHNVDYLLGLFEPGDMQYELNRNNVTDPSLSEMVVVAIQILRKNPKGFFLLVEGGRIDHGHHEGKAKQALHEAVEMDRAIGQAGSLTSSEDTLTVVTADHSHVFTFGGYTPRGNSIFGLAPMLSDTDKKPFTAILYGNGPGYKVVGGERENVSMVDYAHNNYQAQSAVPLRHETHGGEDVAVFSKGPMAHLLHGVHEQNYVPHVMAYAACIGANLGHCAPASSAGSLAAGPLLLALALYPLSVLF

[12] = Counterscreen for IDE inhibitors: Luminescence-based cell-based high throughput dose response assay to identify compounds that are cytotoxic to HEK cells. [Related pubchem assays: 434962 (Primary screen (IDE inhibitors in singlicate)), 449730 (Counterscreen (Cytotoxicity in triplicate)), 435028 (Confirmation (IDE inhibitors in triplicate)) …; format: functional; conditions: HEK293
Insulin-degrading enzyme = target: T3, Insulin-degrading enzyme (Homo sapiens, UniProt P14735); assay: Dose Response: Fluorescence polarization-based cell-based high throughput dose response assay for inhibitors of insulin-degrading enzyme (IDE). [Related pubchem assays: 434962 (Primary screen (IDE inhibitors in singlicate)), 449730 (Counterscreen (Cytotoxicity in triplicate)), 435028 (Confirmation (IDE inhibitors in triplicate)), 434984 (Summary …; format: functional
T3 sequence (P14735 whole entry): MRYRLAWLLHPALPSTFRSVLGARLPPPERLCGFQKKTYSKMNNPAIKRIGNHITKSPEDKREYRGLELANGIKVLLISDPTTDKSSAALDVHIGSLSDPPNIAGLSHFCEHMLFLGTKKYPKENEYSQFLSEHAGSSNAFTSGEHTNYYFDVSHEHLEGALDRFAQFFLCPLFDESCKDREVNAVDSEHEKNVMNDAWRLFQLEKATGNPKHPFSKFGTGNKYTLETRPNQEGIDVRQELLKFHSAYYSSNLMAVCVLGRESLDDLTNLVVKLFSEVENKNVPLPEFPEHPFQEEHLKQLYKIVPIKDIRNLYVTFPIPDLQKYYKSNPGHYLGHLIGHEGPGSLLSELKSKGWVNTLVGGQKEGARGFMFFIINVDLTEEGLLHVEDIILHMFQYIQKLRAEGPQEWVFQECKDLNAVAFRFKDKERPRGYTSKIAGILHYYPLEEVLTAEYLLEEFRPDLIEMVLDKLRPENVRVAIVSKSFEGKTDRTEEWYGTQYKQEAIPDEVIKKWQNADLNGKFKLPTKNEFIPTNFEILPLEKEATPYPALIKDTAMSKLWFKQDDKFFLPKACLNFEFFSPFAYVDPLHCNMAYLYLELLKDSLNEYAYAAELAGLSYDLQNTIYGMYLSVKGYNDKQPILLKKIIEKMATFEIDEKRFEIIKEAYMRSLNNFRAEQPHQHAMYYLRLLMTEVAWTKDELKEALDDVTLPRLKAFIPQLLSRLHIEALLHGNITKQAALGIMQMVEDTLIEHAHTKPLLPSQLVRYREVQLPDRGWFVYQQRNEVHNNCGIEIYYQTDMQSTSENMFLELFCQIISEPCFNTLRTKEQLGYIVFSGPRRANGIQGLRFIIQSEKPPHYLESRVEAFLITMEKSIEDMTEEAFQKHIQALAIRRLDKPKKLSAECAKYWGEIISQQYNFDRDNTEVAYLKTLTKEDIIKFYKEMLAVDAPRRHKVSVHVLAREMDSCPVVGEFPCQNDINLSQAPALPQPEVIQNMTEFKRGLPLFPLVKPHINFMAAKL

[13] = enhancers of respiration in Yfh1-depleted yeast, dose response, Friedreich's ataxia, plus single-dose screen (AID 1465); format: functional;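 further: yeast depleted of Yfh1p frataxin homolog grown on glycerol needing respiration; WST-1 tetrazolium dye reduction as measure of cellular dehydrogenase metabolic activity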
[14] = target: Mothers against decapentaplegic homolog 3 (Homo sapiens, UniProt P84022); assay: Smad3 binding inhibitors, lysate ELISA, dose response, cell lysate, secondary confirmation, chemiluminescent ELISA, HEK293 lysate (AID 1058); format: functional
[15] = target: Serine/threonine-protein phosphatase PP1-alpha catalytic subunit (Homo sapiens, UniProt P62136); assay: PP1 phosphatase inhibitors, dose response, biochemical, fluorescence (AID 2403);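 further: phosphatase turnover of OMFP into fluorescent 3-O-methylfluorescein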
[16] = target: T4, Serine/threonine-protein phosphatase (Homo sapiens, UniProt Q9BPW0); assay: Counterscreen for inhibitors of PP1: fluorescence-based biochemical high throughput dose response assay to identify inhibitors of Protein Phosphatase 5 (PP5). [Related pubchem assays: 2034 (Summary (PP5 inhibitors)), 1987 (PP5 inhibitors in singlate), 2235 (PP1 inhibitors in singlate)]
T4 sequence (Q9BPW0 whole entry): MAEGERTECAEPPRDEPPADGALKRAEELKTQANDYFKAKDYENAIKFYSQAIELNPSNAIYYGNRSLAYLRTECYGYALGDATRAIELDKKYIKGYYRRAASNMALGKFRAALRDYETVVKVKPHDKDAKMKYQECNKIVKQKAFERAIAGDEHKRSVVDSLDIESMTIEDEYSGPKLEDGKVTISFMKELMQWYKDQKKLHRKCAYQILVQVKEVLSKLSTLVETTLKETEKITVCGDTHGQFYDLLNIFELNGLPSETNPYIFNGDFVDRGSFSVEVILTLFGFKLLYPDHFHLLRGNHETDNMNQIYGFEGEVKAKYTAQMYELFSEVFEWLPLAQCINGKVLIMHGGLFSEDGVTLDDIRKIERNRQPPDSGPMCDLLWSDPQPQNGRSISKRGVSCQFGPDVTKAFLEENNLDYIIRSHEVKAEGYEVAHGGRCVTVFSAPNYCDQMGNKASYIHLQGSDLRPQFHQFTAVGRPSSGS

[17] = target: T5, Heat shock factor protein 1 (Mus musculus, UniProt P38532); assay: HSF1 potentiators in luciferase reporter cells, confirmation, cell-based, NIH3T3, luminescence, dose retest (AID 435004); format: functional;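 further: stress induced by proteasome inhibitor MG132 added 30 min after compound; luciferase reporter driven by HSF1 response element in NIH3T3 cells; actives raise luminescence as potentiators of the MG132 stress response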
T5 sequence (P38532 whole entry): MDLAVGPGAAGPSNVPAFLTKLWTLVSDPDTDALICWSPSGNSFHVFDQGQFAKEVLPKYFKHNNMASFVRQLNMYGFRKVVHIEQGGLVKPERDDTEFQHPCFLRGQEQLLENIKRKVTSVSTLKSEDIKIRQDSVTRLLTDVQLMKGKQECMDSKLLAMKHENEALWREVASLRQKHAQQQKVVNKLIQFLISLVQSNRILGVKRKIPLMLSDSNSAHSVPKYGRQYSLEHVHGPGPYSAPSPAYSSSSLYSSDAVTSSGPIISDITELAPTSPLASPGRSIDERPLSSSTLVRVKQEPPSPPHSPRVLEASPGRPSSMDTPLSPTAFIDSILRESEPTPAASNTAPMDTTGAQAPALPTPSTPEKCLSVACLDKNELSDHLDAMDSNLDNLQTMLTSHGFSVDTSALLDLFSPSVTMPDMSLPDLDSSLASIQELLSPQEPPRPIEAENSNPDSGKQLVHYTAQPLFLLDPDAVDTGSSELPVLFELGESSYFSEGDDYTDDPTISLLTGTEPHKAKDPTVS

Procathepsin L, sequence (P07711 whole entry): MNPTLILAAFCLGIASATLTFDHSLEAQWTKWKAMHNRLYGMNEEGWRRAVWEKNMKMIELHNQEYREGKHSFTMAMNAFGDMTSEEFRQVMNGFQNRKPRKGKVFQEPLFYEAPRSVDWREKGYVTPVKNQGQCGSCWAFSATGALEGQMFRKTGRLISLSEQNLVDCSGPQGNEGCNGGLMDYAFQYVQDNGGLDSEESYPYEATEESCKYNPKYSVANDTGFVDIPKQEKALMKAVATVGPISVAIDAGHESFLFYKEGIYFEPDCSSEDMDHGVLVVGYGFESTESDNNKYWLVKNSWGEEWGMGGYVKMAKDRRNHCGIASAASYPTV
5-hydroxytryptamine receptor 1E, sequence (P28566 whole entry): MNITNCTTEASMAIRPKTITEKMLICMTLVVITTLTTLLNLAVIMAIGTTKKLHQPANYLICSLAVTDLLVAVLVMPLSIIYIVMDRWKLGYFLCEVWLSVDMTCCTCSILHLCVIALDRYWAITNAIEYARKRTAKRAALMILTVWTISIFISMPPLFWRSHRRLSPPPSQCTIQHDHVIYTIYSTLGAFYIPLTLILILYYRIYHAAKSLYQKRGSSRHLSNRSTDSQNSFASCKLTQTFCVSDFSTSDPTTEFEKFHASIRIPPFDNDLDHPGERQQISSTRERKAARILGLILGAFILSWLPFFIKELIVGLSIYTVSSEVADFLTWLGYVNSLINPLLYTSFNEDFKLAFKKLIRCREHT
Mothers against decapentaplegic homolog 3, sequence (P84022 whole entry): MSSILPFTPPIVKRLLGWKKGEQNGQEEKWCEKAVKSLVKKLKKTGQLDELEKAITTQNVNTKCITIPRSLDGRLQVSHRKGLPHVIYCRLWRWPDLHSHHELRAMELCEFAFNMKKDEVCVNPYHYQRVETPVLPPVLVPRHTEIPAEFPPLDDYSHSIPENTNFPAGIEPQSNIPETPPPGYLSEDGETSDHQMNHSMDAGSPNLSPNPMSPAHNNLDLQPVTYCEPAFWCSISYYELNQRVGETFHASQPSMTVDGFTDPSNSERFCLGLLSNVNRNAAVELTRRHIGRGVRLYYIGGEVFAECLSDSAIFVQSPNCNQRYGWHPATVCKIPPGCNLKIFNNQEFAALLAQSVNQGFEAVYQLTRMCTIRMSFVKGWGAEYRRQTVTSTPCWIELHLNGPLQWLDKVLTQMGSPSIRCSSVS
Leucine aminopeptidase, sequence (Q8IL11 whole entry): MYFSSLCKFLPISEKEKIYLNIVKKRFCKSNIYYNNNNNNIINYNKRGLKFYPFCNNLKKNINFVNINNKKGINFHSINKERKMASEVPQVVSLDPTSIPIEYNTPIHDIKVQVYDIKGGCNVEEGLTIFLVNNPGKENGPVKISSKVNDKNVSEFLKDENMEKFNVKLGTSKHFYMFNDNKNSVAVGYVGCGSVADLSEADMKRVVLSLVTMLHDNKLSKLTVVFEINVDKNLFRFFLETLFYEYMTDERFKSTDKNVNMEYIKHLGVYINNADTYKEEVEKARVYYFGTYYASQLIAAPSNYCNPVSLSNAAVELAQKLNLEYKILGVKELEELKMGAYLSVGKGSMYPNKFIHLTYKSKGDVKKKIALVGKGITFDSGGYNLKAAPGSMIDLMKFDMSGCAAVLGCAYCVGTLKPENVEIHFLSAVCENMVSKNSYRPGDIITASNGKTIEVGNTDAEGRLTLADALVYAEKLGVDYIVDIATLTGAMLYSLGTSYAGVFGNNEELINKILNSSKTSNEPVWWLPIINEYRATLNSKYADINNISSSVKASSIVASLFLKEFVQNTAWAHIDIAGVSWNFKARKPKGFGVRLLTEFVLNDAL
Serine/threonine-protein phosphatase PP1-alpha catalytic subunit, sequence (P62136 whole entry): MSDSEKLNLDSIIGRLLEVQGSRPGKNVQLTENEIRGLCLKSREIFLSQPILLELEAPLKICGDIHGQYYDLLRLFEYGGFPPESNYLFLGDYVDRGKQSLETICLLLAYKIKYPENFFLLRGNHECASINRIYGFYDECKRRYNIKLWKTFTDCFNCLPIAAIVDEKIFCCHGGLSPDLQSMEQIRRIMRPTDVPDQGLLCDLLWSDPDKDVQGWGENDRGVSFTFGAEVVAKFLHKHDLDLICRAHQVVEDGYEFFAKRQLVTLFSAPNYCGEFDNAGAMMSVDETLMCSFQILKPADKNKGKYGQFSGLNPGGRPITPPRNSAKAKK
Serine/threonine-protein phosphatase (Candida dubliniensis (strain CD36 / CBS 7987 / NCPF 3949 / NRRLY-17841) (Yeast), UniProt B9W6M3), sequence (B9W6M3 whole entry): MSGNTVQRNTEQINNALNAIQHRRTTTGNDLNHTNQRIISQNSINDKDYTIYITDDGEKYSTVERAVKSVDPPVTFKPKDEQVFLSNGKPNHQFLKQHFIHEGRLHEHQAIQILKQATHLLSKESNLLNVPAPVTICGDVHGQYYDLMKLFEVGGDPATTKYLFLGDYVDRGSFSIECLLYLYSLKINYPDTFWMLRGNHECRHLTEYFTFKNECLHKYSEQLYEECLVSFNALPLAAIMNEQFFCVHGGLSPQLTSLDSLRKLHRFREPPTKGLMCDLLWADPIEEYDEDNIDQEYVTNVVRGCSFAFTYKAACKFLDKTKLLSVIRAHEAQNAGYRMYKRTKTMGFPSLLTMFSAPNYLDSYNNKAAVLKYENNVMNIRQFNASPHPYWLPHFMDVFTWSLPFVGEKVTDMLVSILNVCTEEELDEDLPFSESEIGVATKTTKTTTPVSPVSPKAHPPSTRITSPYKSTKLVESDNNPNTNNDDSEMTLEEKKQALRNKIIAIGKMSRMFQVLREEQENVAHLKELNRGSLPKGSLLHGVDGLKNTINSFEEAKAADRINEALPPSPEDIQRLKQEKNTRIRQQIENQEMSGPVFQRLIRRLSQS
ATP-dependent molecular chaperone HSP82, sequence (C4YTQ8 whole entry): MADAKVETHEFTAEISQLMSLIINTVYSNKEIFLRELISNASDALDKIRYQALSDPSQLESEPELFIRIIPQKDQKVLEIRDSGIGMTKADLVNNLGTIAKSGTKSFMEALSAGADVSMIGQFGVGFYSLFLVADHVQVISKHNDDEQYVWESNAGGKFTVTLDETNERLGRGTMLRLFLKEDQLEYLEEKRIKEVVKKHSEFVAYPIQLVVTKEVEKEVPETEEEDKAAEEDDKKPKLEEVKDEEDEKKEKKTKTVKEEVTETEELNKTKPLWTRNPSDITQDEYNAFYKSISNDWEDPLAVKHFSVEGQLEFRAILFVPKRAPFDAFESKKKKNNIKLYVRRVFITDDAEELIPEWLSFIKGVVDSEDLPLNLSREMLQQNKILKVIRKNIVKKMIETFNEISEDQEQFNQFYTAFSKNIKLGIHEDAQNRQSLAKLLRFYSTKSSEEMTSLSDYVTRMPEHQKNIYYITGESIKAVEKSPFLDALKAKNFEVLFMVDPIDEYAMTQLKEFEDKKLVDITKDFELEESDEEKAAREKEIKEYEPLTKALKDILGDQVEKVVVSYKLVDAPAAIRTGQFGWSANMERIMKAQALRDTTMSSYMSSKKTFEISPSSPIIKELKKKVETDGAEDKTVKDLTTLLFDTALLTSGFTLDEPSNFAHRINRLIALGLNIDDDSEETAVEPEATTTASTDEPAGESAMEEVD
Sphingosine 1-phosphate receptor 3, sequence (Q99500 whole entry): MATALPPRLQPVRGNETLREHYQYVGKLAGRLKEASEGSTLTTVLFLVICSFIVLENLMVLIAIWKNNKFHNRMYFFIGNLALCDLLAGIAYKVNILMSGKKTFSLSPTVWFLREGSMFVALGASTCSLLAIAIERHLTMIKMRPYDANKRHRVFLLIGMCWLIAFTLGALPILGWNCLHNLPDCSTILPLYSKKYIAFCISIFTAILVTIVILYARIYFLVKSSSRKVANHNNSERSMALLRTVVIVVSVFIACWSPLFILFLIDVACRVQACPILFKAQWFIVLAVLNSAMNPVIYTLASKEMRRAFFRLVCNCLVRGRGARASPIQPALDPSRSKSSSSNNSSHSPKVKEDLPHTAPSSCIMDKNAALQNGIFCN

O=C(Nc1ccc(Br)cc1)C(c1ccccc1)c1ccccc1
IC50 [1]: > 50 µM (not active) | IC50 [2]: 1.33 µM (active)

CCN(CC)c1ccc(NC(=O)CSc2nc(C)cc(O)n2)cc1
IC50 (Leucine aminopeptidase): 3.06 µM (active) | IC50 (Aspartyl aminopeptidase): > 73.5 µM (not active) | IC50 (Procathepsin L): > 59.6 µM (not active)

Oc1c(C(Nc2nccs2)c2ccc(C(F)(F)F)cc2)ccc2cccnc12 (configuration not stated)
EC50 [3]: 11.2 µM (active) | EC50 [4]: 8.36 µM (active) | EC50 (cells): 1.04 µM (active) | EC50 [5]: < 0.1 µM (active) | EC50 [6]: 1.01 µM (active) | EC50 [7]: > 180 µM (inactive) | EC50 [8]: > 12 µM (not active) | AC50 [9]: 3.69 µM (active) | EC50 [10]: > 160 µM (inactive)

Cc1ccc(C(O)(C(=O)NNC(=O)CN2CCN(C)CC2)c2ccc(C)cc2)cc1
EC50 [11]: 64.1 µM (not active)

O=C1NC(=O)N(c2ccc3c(c2)OCO3)C(=O)/C1=C/c1ccc(N2CCCC2)o1
IC50 [12]: > 55.7 µM (not active) | IC50 (Insulin-degrading enzyme): 20.7 µM (not active) | EC50 [13]: > 100 µM (active)

COc1cc(C(c2cc3c(cc2O)OCO3)N2CCCCC2)cc(OC)c1OC (configuration not stated)
IC50 [14]: 12.5 µM (not active)

O=C(O)c1cc(-c2ccc(Cl)c(Cl)c2)n(-c2ccccc2)n1
IC50 [15]: 5.82 µM (active) | IC50 [16]: > 67 µM (not active) | EC50 [17]: > 260 µM (inactive)
